According to PMC8177813 (Journal of pharmaceutical sciences, 2020):
Structures can show the parent of a compound that is named as a salt. Where two headings read alike, the source gives them in different places. Marks after values point to notes of the source that are not given here.

Assays:
human OAT3 [1] = biological target: T1, human OAT3 (Homo sapiens, UniProt Q8TCC7)
T1 sequence (Q8TCC7 1-542): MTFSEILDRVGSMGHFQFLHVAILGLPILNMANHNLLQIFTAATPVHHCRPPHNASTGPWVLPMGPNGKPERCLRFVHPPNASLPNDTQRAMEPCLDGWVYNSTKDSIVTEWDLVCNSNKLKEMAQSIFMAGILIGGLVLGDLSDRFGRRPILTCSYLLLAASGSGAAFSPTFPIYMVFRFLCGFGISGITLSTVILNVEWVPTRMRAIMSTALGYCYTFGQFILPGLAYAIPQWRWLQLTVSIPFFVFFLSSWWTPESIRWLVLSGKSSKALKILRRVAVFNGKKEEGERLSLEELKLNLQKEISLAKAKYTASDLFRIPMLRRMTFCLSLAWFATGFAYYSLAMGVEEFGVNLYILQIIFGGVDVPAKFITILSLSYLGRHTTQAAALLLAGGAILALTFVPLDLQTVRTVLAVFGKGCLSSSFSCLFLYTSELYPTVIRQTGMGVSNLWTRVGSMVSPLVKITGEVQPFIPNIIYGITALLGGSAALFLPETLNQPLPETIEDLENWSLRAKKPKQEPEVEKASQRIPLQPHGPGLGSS

human OAT3 [2] = biological target: T1, human OAT3; experiment: Inhibition of OAT3-mediated 6-carboxyfluorescein
human OAT1 = biological target: T2, human OAT1 (Homo sapiens, UniProt Q4U2R8); experiment: Inhibition of OAT1-mediated 6-carboxyfluorescein
T2 sequence (Q4U2R8 1-563): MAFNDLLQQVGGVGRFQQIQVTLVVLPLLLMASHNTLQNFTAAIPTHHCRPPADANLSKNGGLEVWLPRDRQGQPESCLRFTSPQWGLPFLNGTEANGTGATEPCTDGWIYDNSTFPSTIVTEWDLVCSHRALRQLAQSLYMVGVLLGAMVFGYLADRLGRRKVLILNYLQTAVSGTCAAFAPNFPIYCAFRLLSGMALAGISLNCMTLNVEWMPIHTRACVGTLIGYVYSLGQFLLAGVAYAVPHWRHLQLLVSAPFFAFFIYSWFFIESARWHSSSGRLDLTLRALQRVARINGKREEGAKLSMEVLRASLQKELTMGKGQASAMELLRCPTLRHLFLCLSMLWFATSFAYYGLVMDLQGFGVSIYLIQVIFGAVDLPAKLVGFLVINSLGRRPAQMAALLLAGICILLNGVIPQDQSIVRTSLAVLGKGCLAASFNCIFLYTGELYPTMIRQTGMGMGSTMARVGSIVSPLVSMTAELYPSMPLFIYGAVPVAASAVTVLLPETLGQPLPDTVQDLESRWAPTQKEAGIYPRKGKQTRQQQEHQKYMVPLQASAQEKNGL

[3] = in vivo
[4] = cited from earlier work; for Cmax / Unbound Fraction: plasma
human OAT3 [5] = biological target: T1, human OAT3; experiment: cell-based
[6] = cited from earlier work
[7] = cited from earlier work; remark: listed apart in the source
[8] = read-out: Ki (OAT1), HEK293 cells stably transfected with OAT1, 2 μM 6CF, 3 min, 37 °C, […]
[9] = ref https://doi.org/10.1002/cpdd.132
[10] = ref https://doi.org/10.1002/j.1552–4604.1993.tb04699.x
[11] = ref https://doi.org/10.1124/jpet.110.165852

| Ki (human OAT3 [5]) [nM] | Ki (human OAT1) [nM] | Molecule | Ki (human OAT3 [2]; read-out: Ki (OAT3)) [nM] | Ki (human OAT1; read-out: Ki (OAT1)) [nM] | other results |
| --- | --- | --- | --- | --- | --- |
|  |  | CCCN(CCC)S(=O)(=O)c1ccc(C(=O)O[C@@H]2O[C@H](C(=O)O)[C@@H](O)[C@H](O)[C@H]2O)cc1 |  |  | Ki (human OAT3 [1]): 19900 nM |
|  |  | 4-Hydroxy flurbiprofen | 1390 | 1600 |  |
|  |  | COc1ccc(Cl)cc1C(=O)NCCc1ccc(S(=O)(=O)NC(=O)N[C@H]2CCC[C@@H](O)C2)cc1 (relative stereo) [3-cis-hydroxycyclohexyl glyburide] | 810 |  | Ki (human OAT1; [8]): 10100 nM |
|  |  | O=C(O)Cc1ccccc1Nc1c(Cl)cc(O)cc1Cl [4-Hydroxy diclofenac] | 2030 | 480 |  |
|  |  | O=c1n(CCCN2CCN(c3ccc(O)c(Cl)c3)CC2)nc2ccccn12 [4-hydroxy-trazodone] | 16900 | > 200000 |  |
|  |  | CN1C(C(=O)Nc2ncc(C(=O)O)s2)=C(O)c2ccccc2S1(=O)=O [5-Carboxy-meloxicam] | 700 | 19600 |  |
|  |  | CN(CCOc1ccc(CC2SC(=O)NC2=O)cc1)c1ccc(O[C@@H]2O[C@H](C(=O)O)[C@@H](O)[C@H](O)[C@H]2O)cn1 (stereo partly drawn) [5-Hydroxy Rosiglitazone β-D-Glucuronide] | > 200000 | > 200000 |  |
|  |  | CN(CCOc1ccc(CC2SC(=O)NC2=O)cc1)c1ccc(OS(=O)(=O)O)cn1 (centres unmarked) [5-OH-rosiglitazone sulfate] | 1310 | 33700 |  |
|  |  | CC(=O)C[C@@H](c1ccccc1)c1c(O)c2ccc(O)cc2oc1=O [(S)-7-hydroxy warfarin] | 1930 | 14500 |  |
|  |  | C[C@H](C(=O)O)c1ccc2cc(O)ccc2c1 [(S)-O-desmethyl naproxen] | 3440 | 4700 |  |
|  |  | COc1ccc2cc([C@H](C)C(=O)O[C@@H]3O[C@H](C(=O)O)[C@@H](O)[C@H](O)[C@H]3O)ccc2c1 [(S)-naproxen acyl-β-D-glucuronide] | 5430 | > 200000 |  |
|  |  | C[C@]12CC[C@H](OS(=O)(=O)O)CC1=CC[C@@H]1[C@@H]2CC[C@]2(C)C(c3ccc[n+]([O-])c3)=CC[C@@H]12 [Abiraterone N-oxide sulfate] | 1360 |  | Cmax,u [3]: 0.092 µM; Cmax [4, 9]: 9.2 µM; Ki (human OAT1; [8]): > 100000 nM |
|  |  | C[C@]12CC[C@H](OS(=O)(=O)O)CC1=CC[C@@H]1[C@@H]2CC[C@]2(C)C(c3cccnc3)=CC[C@@H]12 [Abiraterone sulfate] | 1830 | 38200 | Cmax,u [3]: 0.25 µM; Cmax [4, 9]: 25 µM |
| > 20000 | > 20000 | C[C@]12CC[C@H](O)CC1=CC[C@@H]1[C@@H]2CC[C@]2(C)C(c3cccnc3)=CC[C@@H]12 [Abiraterone, reference compound] |  |  | Cmax [4, 9]: 0.37 µM; basic pKa [6]: 5.19 |
|  |  | NS(=O)(=O)c1ccc(-n2nc(C(F)(F)F)cc2-c2ccc(C(=O)O)cc2)cc1 [Celecoxib carboxylic acid] | 8430 | 262000 | acidic pKa [6]: 3.98 |
| > 200000 | > 200000 | Cc1ccc(-c2cc(C(F)(F)F)nn2-c2ccc(S(N)(=O)=O)cc2)cc1 [Celecoxib, reference compound] |  |  |  |
|  |  | C[C@]12CC[C@@H]3c4ccc(OS(=O)(=O)O)cc4CC[C@H]3[C@@H]1CCC2=O [Estrone sulfate, reference compound] |  |  | Ki (human OAT3 [1]): 1000 nM |
| 1800 | 1910 | CC(C(=O)O)c1ccc(-c2ccccc2)c(F)c1 (centres unmarked) [Flurbiprofen, reference compound] |  |  |  |

| Ki (human OAT3 [5]) [nM] | Ki (human OAT1) [nM] | Molecule | Ki (human OAT3 [2]; read-out: Ki (OAT3)) [nM] | Ki (human OAT1; read-out: Ki (OAT1)) [nM] | other results |
| --- | --- | --- | --- | --- | --- |
| 210 | 5700 | COc1ccc(Cl)cc1C(=O)NCCc1ccc(S(=O)(=O)NC(=O)NC2CCCCC2)cc1 [Glyburide, reference compound] |  |  |  |
| 1370 | 27600 | CC(O)c1ccc(CCOc2ccc(CC3SC(=O)NC3=O)cc2)nc1 (centres unmarked) [Hydroxy pioglitazone] |  |  |  |
|  |  | Cc1ccc(NC(=O)c2ccc(CN3CC[N+](C)([O-])CC3)cc2)cc1Nc1nccc(-c2cccnc2)n1 [Imatinib (piperidine)-4-oxide] | 64200 | > 200000 |  |
| 110 |  | COc1ccc2c(c1)c(CC(=O)O)c(C)n2C(=O)c1ccc(Cl)cc1 [Indomethacin] |  |  |  |
|  |  | CC(=O)c1ccc(CCOc2ccc(CC3SC(=O)NC3=O)cc2)nc1 (centres unmarked) [Keto pioglitazone] | 730 | 12500 |  |
| 360 | 11400 | CCCCc1nc(Cl)c(CO)n1Cc1ccc(-c2ccccc2-c2nn[nH]n2)cc1 [Losartan, reference compound] |  |  | Unbound Fraction ([4]; ref Drugbank (https://www.drugbank.ca/drugs/DB00678)): 1.4%^d |
| 540 | 6880 | Cc1cnc(NC(=O)C2=C(O)c3ccccc3S(=O)(=O)N2C)s1 [Meloxicam, reference compound] |  |  |  |
|  |  | O=C1NC(=O)C(Cc2ccc(OCCNc3ccccn3)cc2)S1 (centres unmarked) [N-desmethyl rosiglitazone] | 1150 | 33300 |  |
|  |  | Cc1c(CC(=O)O)c2cc(O)ccc2n1C(=O)c1ccc(Cl)cc1 [O-desmethyl indomethacin] | 270 | 1620 |  |
| 1020 | 6300 | CCc1ccc(CCOc2ccc(CC3SC(=O)NC3=O)cc2)nc1 (centres unmarked) [Pioglitazone, reference compound] |  |  |  |
| 590 | 4200 | CN(CCOc1ccc(CC2SC(=O)NC2=O)cc1)c1ccccn1 (centres unmarked) [Rosiglitazone, reference compound] |  |  |  |
| 660 | 3680 | CSc1ccc(/C=C2/C(C)=C(CC(=O)O)c3cc(F)ccc32)cc1 [Sulindac sulfide] |  |  | Cmax [4, 10]: 22.6 µM; Unbound Fraction [4, 10]: 6.01%; Unbound Fraction [4, 11]: 4.6% |
|  |  | CC1=C(CC(=O)O)c2cc(F)ccc2/C1=C\c1ccc(S(C)(=O)=O)cc1 [Sulindac sulfone] | 600 | 23000 | Cmax [4, 10]: 4.48 µM; Unbound Fraction [4, 11]: 2.1%^b |
| 1650 | 56800 | CC1=C(CC(=O)O)c2cc(F)ccc2/C1=C\c1ccc([S+](C)[O-])cc1 (centres unmarked) [Sulindac, reference compound] |  |  | Unbound Fraction [4, 10]: 6.78%^a |
|  |  | Cc1ccc(C(=O)c2ccc(CC(=O)O[C@@H]3O[C@H](C(=O)O)[C@@H](O)[C@H](O)[C@H]3O)n2C)cc1 [Tolmetin β-D-glucuronide] | 2920 | 7170 |  |
| 810 | 3010 | Cc1ccc(C(=O)c2ccc(CC(=O)O)n2C)cc1 [Tolmetin, reference compound] |  |  |  |
| 2940 | 19900 | O=c1n(CCCN2CCN(c3cccc(Cl)c3)CC2)nc2ccccn12 [Trazodone, reference compound] |  |  |  |
|  |  | CC(C)c1nc(N(C)S(C)(=O)=O)nc(-c2ccc(F)cc2)c1/C=C/[C@@H](O)C[C@@H](O)CC(=O)O [rosuvastatin] |  |  | renal clearance as share of total plasma clearance [7]: 28%; share of renal clearance thought to result from OAT3-mediated tubular secretion [7]: 90% |

| Molecule | Ki (human OAT3 [5]) [nM] | Ki (human OAT1) [nM] | Ki (human OAT3 [2]; read-out: Ki (OAT3)) [nM] | Ki (human OAT1; read-out: Ki (OAT1)) [nM] | other results |
| --- | --- | --- | --- | --- | --- |
| CC(C(=O)O)c1cccc(C(=O)c2ccccc2)c1 (centres unmarked) [Ketoprofen, reference compound] |  | 1730 |  |  | Ki (human OAT3 [2]): 1610 nM |
| CCCCc1nc(Cl)c(C(=O)O)n1Cc1ccc(-c2ccccc2-c2nn[nH]n2)cc1 [Losartan carboxylic acid] | 100 | 690 |  |  | times more potent in inhibiting OAT3 than parent drug (human OAT3 [2]; metabolite versus losartan): 3.6 times; plasma unbound fraction ([4]; no reference given): lower than 1%; times more potent in inhibiting OAT1 than parent drug (human OAT1; metabolite versus losartan): 16.5 times |
| CC(=O)CC(c1ccccc1)c1c(O)c2ccccc2oc1=O (centres unmarked) [Warfarin, reference compound] |  | 15800 |  |  | Ki (human OAT3 [2]): 3110 nM |
